Here are results for one molecule from patent US12637415B2, “Lyophilized composition comprising (s)-isopropyl 2-((s)-2-acetamido-3-(1H-indol-3-yl)propanamido)-6-diazo-5-oxohexanoate for intravenous administration and the use thereof” (DRACEN PHARMACEUTICALS, INC., priority 2019, dated 2026).

Type in all cases: physicochemical
Data set [1] is described as follows: Study Number 1: in-use stability diluted in normal saline in PVC containers (HPLC purity and concentration, 24 hour). The conditions noted are these: for Time stable at room temperature: 0.012-0.3 mg/mL diluted in normal saline in PVC containers. As for the experimental part:
The purity and concentration of Compound 1 as measured by HPLC were determined during a 24 hour test period while the drug product was held in its diluted state in normal saline in a polyvinyl chloride (PVC) clinical containers over a range of concentrations in 500 mL bags. The parameters of the study were: • Compound 1 dose: 6 mg and 150 mg in 500 mL • Concentration range: 0.012-0.3 mg/mL Compound 1 • Container size: 500 mL • Diluent: 0.9% normal saline, USP • Stability time points: 0, 4, 8, 24 hours • Storage condition: room temperature (15-25° C.) • Container composition: polyvinyl chloride • Light conditions: ambient light vs amber IV bag covers to limit UV exposure • Reconstitution: 80% (v/v) ethanol for reconstitution of the lyophilate, followed by dilution into normal saline.

Data set [2] is described as follows: Study Number 2: in-use stability in PVC and polyolefin containers, 4 hour hold plus 1 hour infusion (HPLC). The method, then: (§1) The purity and concentration of Compound 1 as measured by HPLC were determined during a 5 hour test period while the drug product was held in polyvinyl chloride (PVC) and non-PVC, non-DEHP (polyolefin) clinical containers over a range of concentrations in 500 mL containers. Admixed containers were delivered with an […] infusion set by holding the infusion bag with diluted test article for 4 hours prior to a 1 hour infusion to assess in use stability over a total of 5 hours to mimic clinical practice. The parameters of the study were: • Compound 1 dose: 6 mg and 150 mg in 500 mL • Concentration range: 0.012-0.3 mg/mL Compound 1 • Container size: 500 mL • Diluent: 0.9% normal saline, USP • Stability time points: 0 hours, 4 hours (pre-infusion), 5 hours (post-1 hour infusion) • Storage condition: room temperature (15-25° C.) • Container composition: polyvinyl chloride and non-PVC, non-DEHP (polyolefin) • Light conditions: ambient light vs amber IV bag covers to limit UV exposure • Reconstitution: 80% (v/v) ethanol for reconstitution of the lyophilate, followed by dilution into normal saline.

Data set [3] can be described thus: Study Number 3: in-use stability in polyolefin containers after 50% ethanol reconstitution, 4 hour hold plus 1 hour infusion (HPLC). The method, then: as §1, with “a” for “polyvinyl chloride (PVC) and non-PVC,”, “120” for “150”, “0.012-0.24” for “0.012-0.3”, “composition:” for “composition: polyvinyl chloride and non-PVC,”, “conditions:” for “conditions: ambient light vs”, “50%” for “80%”

Data set [4] can be described thus: Holding of compounded sterile filtered pre-lyophilization solutions (precipitation). The conditions noted are these: for Precipitation in held pre-lyophilization solution: 24 h; for Precipitation post filtration: vials stored at 17° C., 20° C., 22° C., or 25° C. for 24 h. As for the experimental part: Experiments were conducted to study the compounding and holding of pre-lyophilization solutions comprising Compound 1.
Vials of the compounded sterile filtered pre-lyophilization solutions were held at 17° C., 20° C., 22° C., and 25° C.

Data set [5] is described as follows: Compounding (dissolution) of pre-lyophilization solutions comprising Compound 1. As for the experimental part:
Third, Compound 1 was dissolved in the solution at 30° C. After dissolution, the solution was cooled to room temperature (20-22° C.). Experiments were conducted to study the compounding and holding of pre-lyophilization solutions comprising Compound 1.

In the case of `CC(=O)N[C@@H](Cc1c[nH]c2ccccc12)C(=O)N[C@@H](CCC(=O)C=[N+]=[N-])C(=O)OC(C)C` [Compound 1, (S)-isopropyl 2-((S)-2-acetamido-3-(1H-indol-3-yl)propanamido)-6-diazo-5-oxohexanoate], the “Appearance of diluted samples” value is listed as “remained clear” in data set [1] (0.012-0.3 mg/mL in normal saline, PVC, room temperature, through 24 hours); “remained clear” in data set [2] (0.012-0.3 mg/mL in normal saline, PVC and polyolefin, room temperature, through 5 hours); “remained clear” in data set [3] (0.012-0.24 mg/mL in normal saline, polyolefin, room temperature, through 5 hours, 50% ethanol reconstitution). For the same molecule, the “Time stable at room temperature” value is recorded as “up to 24 hours” in data set [1] (amber covered shroud protected from light); “up to 8 hours” in data set [1] (ambient light); “up to 4 hours” in data set [2] (followed by a 1 hour infusion, amber shroud, polyolefin containers, low-sorb tubing, 0.012-0.3 mg/mL in normal saline); “up to 4 hours” in data set [3] (followed by a 1 hour infusion, amber shroud, polyolefin containers, PVC or low-sorb tubing, 0.012-0.24 mg/mL in normal saline). Further, the “Impurity testing (HPLC)” value was “greater impurities under ambient light with an increase in impurities observed over the course of the experiment” in data set [1] (ambient light vs amber cover, 0-24 hours, PVC container); “greater impurities under ambient light with an increase in impurities observed over the course of the experiment” in data set [2] (ambient light vs amber cover, 4 hours and 1 hour post infusion compared to baseline); “no impurities at any time point” in data set [3] (all time points (0, 4, 5 hours), polyolefin, amber cover). The “Precipitation in held pre-lyophilization solution” value in data set [4] (17° C., 10 mg/mL) is “remain free of precipitation”; in data set [4] (17° C., 12.5 mg/mL), “remain free of precipitation”. Also, the “Time to precipitation of pre-lyophilization solution” value in data set [4] (17° C., 15 mg/mL) is recorded as “occurs within 1 h at 15 mg/mL”. Further, in data set [4] (Exp 4: 15 mg/mL, sterile filtered, vial held at 17° C., at 1 h), the “Precipitation post filtration (observed or not)” value was “observed in vial held”. The Precipitation post filtration entry in data set [4] (Exp 5: 12.5 mg/mL) and in data set [4] (Exp 6: 10 mg/mL) was “No precipitation” throughout. Moreover, the Dissolution time was >6.5 h (estimated at in data set [5] (Exp 2: excipients and Compound 1 15 mg/mL at 25° C., single vessel); 1.25 h in data set [5] (Exp 3: 15 mg/mL, two vessels, after mixing aqueous and organic portions, held at the temperature of the organic phase); “Dissolution time: 5 h” in data set [5] (Exp 4: excipients and Compound 1 15 mg/mL at 30° C., single vessel); 3.66 h in data set [5] (Exp 5: excipients and Compound 1 12.5 mg/mL at 30° C., single vessel); 1.75 h in data set [5] (Exp 6: excipients and Compound 1 10 mg/mL at 30° C., single vessel). Also, the “Dissolution time (estimated)” value in data set [5] (Exp 2: excipients and Compound 1 15 mg/mL at 25° C., single vessel, estimated) was about 9.5 h. The “Dissolution of Compound 1 in ethanol and t-butanol (organic dissolution)” value in data set [5] (Exp 3: 15 mg/mL, two vessels (separate aqueous and organic), 25° C. stepped up to 35° C.) is “remains as solid even at”.
